Measured values published in patent US7714158B2, “Ibandronate polymorph” (Hoffmann-La Roche Inc., priority 2005, dated 2010).

Key:
[1] = Solubility measurement of crystalline Ibandronate polymorphs by suspension and complexometric titration; type: physicochemical; details: Polymorph A; water; 25° C., 24 h stirred + 24 h unstirred; listed as Ibandronate polymorph A, monosodium salt monohydrate
Method: The solubility of the individual crystalline Ibandronate polymorphs A and B was measured for various solutions. Approximately 10 g of the corresponding polymorph A or B were suspended in three different buffer solutions at pH 2, pH 4 (Titrisol-buffer, citrate/HCl), at pH 7 (methenamine buffer, HCl) or in water. The suspension was stirred for 24 hours at 25° C. and was kept additionally 24 hours without stirring at the same temperature. Solubility was calculated by titration according to the following method.
The residue was filtered, 2 ml of the filtrate taken, 5 ml of Titriplex III solution were added and diluted with water to 100 ml. 2 ml of this solution were added to approximately 0.1 ml of xylenol orange indicator and the pH was adjusted to 6.5 by adding small portions of methenamine buffer solution or 0.1 M hydrochloric acid. The solution is titrated immediately with Th-DCTA-xylenol orange complex until the color changes from yellow to reddish-violet. The endpoint is determined photometrically.

[2] = Relative thermodynamic stability of Ibandronate polymorphs; details: compared with polymorph B

Compound: CCCCCN(C)CCC(O)(P(=O)([O-])O)P(=O)(O)O.O.[Na+] [Polymorph A, 3-(N-methyl-N-pentyl) amino-1-hydroxypropane-1,1-diphosphonic acid monosodium salt monohydrate]
- solubility [1]: about 278 g/l
- thermodynamic stability [2]: thermodynamically more stable
